Assay results from patent US20230111656A1, “METHODS OF CONTROLLING OR PREVENTING INFESTATION OF SOYBEAN PLANTS BY THE PHYTOPATHOGENIC MICROORGANISM CORYNESPORA CASSIICOLA” (SYNGENTA CROP PROTECTION AG, priority 2020, published 2023).

System: Corynespora cassiicola
Experiment: Liquid culture growth inhibition of Corynespora cassiicola (PDB, 96-well microtiter plate, photometric)
Assay type: cell-based
Conditions: 24 C, 3-4 days, photometric at 620 nm, compared to untreated control
Experimental: Conidia of the fungus from cryogenic storage were directly mixed into nutrient broth (PDB potato dextrose broth). A DMSO solution of the test compounds was placed into a microtiter plate (96-well format) and the nutrient broth containing the fungal spores was added to it. The test plates were incubated at 24 C and the inhibition of growth (% control of Corynespora cassiicola) was determined photometrically after 3-4 days at 620 nm. The activity of a compound is derived by comparing the inhibition of growth in the treated test solution to the growth in the untreated check. The concentration of the compounds was 0.74, 0.25, and 0.082 ppm.

In the case of `CC1(C)N=C(c2cnc3ccccc3c2)c2ccccc2C1(F)F`, the “control of Corynespora cassiicola (inhibition of growth)” value (shortened to “control … (inhibition of growth)”) (0.082 ppm) is reported as “at least 20%”, the “control … (inhibition of growth)” value (0.25 ppm) is reported as “at least 50%” and the “control … (inhibition of growth)” value (0.74 ppm) is reported as “at least 70%”.
